The values that follow come from patent US20090005442A1, “CARBAMATE COMPOUNDS FOR USE IN PREVENTING OR TREATING NEURODEGENERATIVE DISORDERS” (priority 2001, published 2009).

This experiment has as its system PC12 cells. The experiment in a line: PC12 cell serum withdrawal model (MTS cell survival assay). It is filed as cell-based. Particulars: control cells = 100%; for 7 Day Survival Rate (%): 10 μM applied at serum withdrawal and every 48 hr, MTS assay at 7 days; for 2 Day Survival Rate (%): 10 μM applied once at serum withdrawal, MTS assay at 2 days. The source says: Serum withdrawal is a cytotoxic environmental challenge that results in cell death in cultured cell lines as well as in primary cells of various tissue origins, including nerve cells. In particular, pheochromocytoma (PC) 12 cells have been widely employed as an in vitro neuronal cell model for a wide variety of neurodegenerative and cell death related disorders (Muriel, et al, Mitochondrial free calcium levels (Rhod-2 fluorescence) and ultrastructural alterations in neuronally differentiated PC12 cells during ceramide-dependent cell death, J. Comp. Neurol., 2000, 426(2), 297-315; Dermitzaki, et al, Opioids transiently prevent activation of apoptotic mechanisms following short periods of serum withdrawal, J. Neurochem., 2000, 74(3), 960-969; Carlile, et al, Reduced apoptosis after nerve growth factor and serum withdrawal: conversion of tetrameric glyceraldehyde-3-phosphate dehydrogenase to a dimer, Mol. Pharmacol., 2000, 57(1), 2-12).
PC12 cells were cultured in sterile media (RPMI 1640) supplemented with 10% heat-inactivated horse serum and 5% fetal bovine serum (FBS). The culture medium also contained 1× Penicillin-Streptomycin-Neomycin antibiotic (50 μg, 50 μg, 100 μg, respectively). Medium was exchanged every other day and the cells were passed in log phase near confluence.
The control cells were cultured in regular media without any treatment. An enantiomer of Formula (Ib) or […] (10 μM) was mixed well in the medium and then applied to the cells. For the 2 day assay, an enantiomer of Formula (Ib) or […] (10 μM) was only applied to the cells once at the time of serum withdrawal. For the 7 day assay, an enantiomer of Formula (Ib) or Formula (IIb) (10 μM) was applied to the cells at the time of serum withdrawal and every 48 hr thereafter when cells were changed with fresh new serum-free medium. In the serum withdrawal group, the cells were cultured in serum-free medium with no additional enantiomer of Formula (Ib) or Formula (IIb). Cell survival was determined by the 3-(4,5-dimethylthiazol-2-yl)-5-(3-carboxy-methoxyphenyl)-2-(4-sulfophenyl)-2H-tetrazolium inner salt (MTS) assay at 2 or 7 days after serum withdrawal.
At the end of the experiment, cells were washed with fresh medium and incubated with MTS solution in a humidified 37° C. with 5% CO2 incubator for 1.5 hr. After the incubation period, the cells were immediately analyzed using a Softmax program (Molecular Devices). […] The assay is based on the cellular conversion of the tetrazolium salt, MTS, into a formazan that is soluble in tissue culture medium and measured directly at 490 nm in 96-well assay plates. The absorbance is directly proportional to the number of living cells in culture. The arbitrary absorbance reading in control cells is expressed as 100% survival rate.

With `NC(=O)OC[C@H](OC(N)=O)c1ccccc1Cl` [Formula (IIb)], the “7 Day Survival Rate (%)” value is 85.2 ± 0.6^2% and the “2 Day Survival Rate (%)” value is 66.4 ± 5.4^1%.
On the same counts, the results for `NC(=O)OC[C@@H](O)c1ccccc1Cl` [Formula (Ib)] are 79.9 ± 4.0^2% and 69.4 ± 1.7^1%.
